# Results taken from patent US5753673A, “Quinolinecarboxylic acid derivatives” (Taisho Pharmaceutical Co., Ltd., priority 1994, dated 1998).
# Key:
# 5-HT1A receptor = molecular target: T1, 5-HT1A receptor (Rattus norvegicus, UniProt P19327); assay: Selectivity for receptors: 5-HT1A receptor, inhibition of [^3 H] 8-OH-DPAT binding to rat cerebral cortex membrane
# T1 construct: The rat cerebral cortex was homogenized in 50 mM Tris hydrochloride buffer; from tissue; host or cells: rat cerebral cortex membranes
# T1 sequence (P19327 1-422): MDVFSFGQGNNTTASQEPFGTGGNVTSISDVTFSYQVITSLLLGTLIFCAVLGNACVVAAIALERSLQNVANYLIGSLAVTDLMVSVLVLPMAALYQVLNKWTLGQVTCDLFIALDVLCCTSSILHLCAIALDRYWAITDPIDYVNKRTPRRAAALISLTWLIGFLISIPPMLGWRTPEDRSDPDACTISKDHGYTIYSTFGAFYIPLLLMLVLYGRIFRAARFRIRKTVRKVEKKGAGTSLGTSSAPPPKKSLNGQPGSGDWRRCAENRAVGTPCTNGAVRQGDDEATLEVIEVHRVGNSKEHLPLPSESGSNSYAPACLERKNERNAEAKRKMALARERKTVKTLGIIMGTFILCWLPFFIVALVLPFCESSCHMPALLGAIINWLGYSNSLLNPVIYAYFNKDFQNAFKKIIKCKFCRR
# Method: The selectivity for receptors of the quinolinecarboxylic acid derivatives of the present invention was examined by the following method.
# The affinity to serotonin 1A (5-HT1A) receptor was examined by the method described in […], J. R. et al., Biochem. Pharmacol., 12, 1943-1949 (1986).
# The affinity to serotonin 1A (5-HT1A) was examined in terms of inhibition of [^3 H] 8-OH-DPAT (Daiichi Kagaku Yakuhin Co.) binding to rat cerebral cortex membrane. The rat cerebral cortex was homogenized in 50 mM Tris hydrochloride buffer (pH 7.4) followed by centrifugation at 48,000 G.
# The pellet was washed once with Tris hydrochloride buffer. Then the pellet was suspended in 50 mM Tris hydrochloride buffer (supplemented with 0.01 mM pargyline and 0.1% ascorbic acid, pH 7.7) and provided for use as the membrane preparation. The membrane specimen was reacted with 1 nM [^3 H] 8-OH-DPAT at 37° C. for 15 minutes. After the reaction, the membrane was caught by a harvester. Non-specific binding was defined as that taken in the presence of 10 μM 5-HT.
# [1] = system: gastrointestinal motor function; conditions: TALLEY, N. J., 1992; cited from earlier work
smiles,measurement,setting,value
"COc1cc(N)c(Cl)cc1C(=O)N[C@@H]1CCN(CCCOc2ccc(F)cc2)C[C@@H]1OC (relative stereo) [Comparative Compound 1, Cisapride, reference compound]",IC50,5-HT1A receptor,64.7 nM
same,effect on gastrointestinal motor function and conditions,[1],accelerate the gastrointestinal motor function and improve the gastrointestinal conditions
COc1cc(N)c(Cl)cc1C(=O)NC1CCN2CCCC1C2 (stereo not drawn) [renzapride],effect on gastrointestinal motor function and conditions,[1],accelerate the gastrointestinal motor function and improve the gastrointestinal conditions
